Results from ChEMBL document CHEMBL4507291 (2021).

Key:
[1] = target: T1, Ephrin type-B receptor 2 (Homo sapiens) (UniProt P29323); assay: EPHB2 Kinase screen; conditions: Compound concentration 1.0 uM
T1 sequence (whole entry): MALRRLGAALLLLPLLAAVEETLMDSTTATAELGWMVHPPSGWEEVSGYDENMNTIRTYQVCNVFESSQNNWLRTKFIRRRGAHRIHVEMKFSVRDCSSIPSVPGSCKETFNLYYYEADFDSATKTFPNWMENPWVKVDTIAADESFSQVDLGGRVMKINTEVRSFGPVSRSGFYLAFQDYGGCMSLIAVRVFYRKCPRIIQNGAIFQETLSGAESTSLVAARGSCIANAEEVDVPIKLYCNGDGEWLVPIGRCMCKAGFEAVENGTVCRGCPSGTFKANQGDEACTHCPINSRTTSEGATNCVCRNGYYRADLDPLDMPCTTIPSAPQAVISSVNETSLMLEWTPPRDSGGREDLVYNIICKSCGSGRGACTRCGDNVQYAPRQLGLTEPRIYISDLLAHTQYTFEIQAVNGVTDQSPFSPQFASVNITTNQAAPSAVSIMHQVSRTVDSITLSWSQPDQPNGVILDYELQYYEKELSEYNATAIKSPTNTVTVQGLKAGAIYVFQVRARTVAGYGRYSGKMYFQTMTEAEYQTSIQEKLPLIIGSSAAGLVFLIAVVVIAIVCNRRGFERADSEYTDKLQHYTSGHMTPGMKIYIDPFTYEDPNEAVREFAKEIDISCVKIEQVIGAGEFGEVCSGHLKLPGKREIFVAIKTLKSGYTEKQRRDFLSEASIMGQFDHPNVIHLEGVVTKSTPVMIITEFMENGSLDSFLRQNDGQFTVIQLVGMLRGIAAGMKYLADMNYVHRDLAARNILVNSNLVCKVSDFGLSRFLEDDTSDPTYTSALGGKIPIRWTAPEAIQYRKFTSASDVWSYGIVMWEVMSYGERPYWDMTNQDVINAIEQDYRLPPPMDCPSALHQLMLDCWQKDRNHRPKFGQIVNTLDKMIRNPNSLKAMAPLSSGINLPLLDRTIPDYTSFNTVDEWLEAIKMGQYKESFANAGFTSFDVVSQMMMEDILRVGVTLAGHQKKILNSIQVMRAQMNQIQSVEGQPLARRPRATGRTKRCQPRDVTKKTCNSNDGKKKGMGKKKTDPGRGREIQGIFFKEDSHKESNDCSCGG

[2] = target: Tyrosine-protein kinase Blk (Homo sapiens) (UniProt P51451); assay: BLK Kinase screen; conditions: Compound concentration 1.0 uM
Sequence of Tyrosine-protein kinase Blk (Homo sapiens) (P51451 2-505 limits assumed): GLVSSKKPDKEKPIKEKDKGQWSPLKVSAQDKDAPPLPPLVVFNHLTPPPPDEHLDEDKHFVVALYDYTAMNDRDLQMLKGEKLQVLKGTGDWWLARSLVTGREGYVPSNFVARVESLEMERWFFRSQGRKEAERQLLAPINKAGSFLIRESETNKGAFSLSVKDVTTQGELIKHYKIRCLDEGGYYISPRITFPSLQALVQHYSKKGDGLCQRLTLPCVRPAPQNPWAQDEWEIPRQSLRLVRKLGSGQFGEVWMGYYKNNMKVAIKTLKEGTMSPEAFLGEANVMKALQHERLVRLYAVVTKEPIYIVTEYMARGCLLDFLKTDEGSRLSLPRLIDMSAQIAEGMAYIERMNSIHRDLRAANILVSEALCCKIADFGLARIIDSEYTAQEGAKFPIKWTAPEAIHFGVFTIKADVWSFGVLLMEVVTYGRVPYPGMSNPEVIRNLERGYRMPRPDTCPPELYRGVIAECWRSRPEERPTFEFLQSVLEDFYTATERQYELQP

[3] = tested on: Tyrosine-protein kinase ABL1 (Homo sapiens), P00519 [Y253F]; assay: ABL1 Y253F Kinase screen; conditions: Compound concentration 1.0 uM
[4] = target: T2, Mitogen-activated protein kinase kinase kinase kinase 2 (Homo sapiens) (UniProt Q12851); assay: MAP4K2 (GCK) Kinase screen; conditions: Compound concentration 1.0 uM
T2 sequence (whole entry): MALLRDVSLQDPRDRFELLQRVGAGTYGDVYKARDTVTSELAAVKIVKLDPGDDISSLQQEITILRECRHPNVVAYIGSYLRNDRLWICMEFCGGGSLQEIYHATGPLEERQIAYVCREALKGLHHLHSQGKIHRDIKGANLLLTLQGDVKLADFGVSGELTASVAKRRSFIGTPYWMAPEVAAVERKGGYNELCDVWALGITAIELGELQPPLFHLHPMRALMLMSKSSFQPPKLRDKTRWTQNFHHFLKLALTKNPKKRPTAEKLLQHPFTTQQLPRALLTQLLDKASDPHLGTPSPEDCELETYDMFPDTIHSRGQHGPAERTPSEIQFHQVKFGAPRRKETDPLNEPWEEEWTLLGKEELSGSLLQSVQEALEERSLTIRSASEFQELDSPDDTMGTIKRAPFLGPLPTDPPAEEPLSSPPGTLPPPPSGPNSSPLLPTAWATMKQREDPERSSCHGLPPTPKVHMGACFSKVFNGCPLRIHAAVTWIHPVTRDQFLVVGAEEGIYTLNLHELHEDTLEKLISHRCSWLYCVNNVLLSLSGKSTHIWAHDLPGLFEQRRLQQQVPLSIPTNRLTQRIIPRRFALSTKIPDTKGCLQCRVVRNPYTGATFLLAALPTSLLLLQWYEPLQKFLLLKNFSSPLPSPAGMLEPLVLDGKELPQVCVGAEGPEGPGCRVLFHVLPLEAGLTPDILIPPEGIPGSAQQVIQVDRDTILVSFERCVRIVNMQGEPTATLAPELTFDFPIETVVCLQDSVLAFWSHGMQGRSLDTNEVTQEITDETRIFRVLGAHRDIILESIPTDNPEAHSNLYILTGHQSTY

[5] = target: B1 bradykinin receptor (Homo sapiens) (UniProt P46663); assay: Inhibition of Bradykinin B1 at 10 µM in the Eurofins-Panlabs radioligand binding assay (Eurofins_assay_212510); conditions: Compound concentration 10.0 uM
Sequence of B1 bradykinin receptor (Homo sapiens) (P46663 whole entry): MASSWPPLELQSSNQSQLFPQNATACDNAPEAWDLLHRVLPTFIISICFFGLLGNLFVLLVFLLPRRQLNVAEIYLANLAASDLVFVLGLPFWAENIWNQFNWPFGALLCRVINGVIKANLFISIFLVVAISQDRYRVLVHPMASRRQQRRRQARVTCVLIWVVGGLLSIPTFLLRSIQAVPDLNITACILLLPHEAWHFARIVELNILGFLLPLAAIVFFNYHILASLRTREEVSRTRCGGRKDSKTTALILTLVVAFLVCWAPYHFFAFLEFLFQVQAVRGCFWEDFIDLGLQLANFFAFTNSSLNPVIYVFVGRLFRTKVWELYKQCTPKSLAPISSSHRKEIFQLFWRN

[6] = target: T3, Ephrin type-A receptor 8 (Homo sapiens) (UniProt P29322); assay: EPHA8 Kinase screen; conditions: Compound concentration 1.0 uM
T3 sequence (whole entry): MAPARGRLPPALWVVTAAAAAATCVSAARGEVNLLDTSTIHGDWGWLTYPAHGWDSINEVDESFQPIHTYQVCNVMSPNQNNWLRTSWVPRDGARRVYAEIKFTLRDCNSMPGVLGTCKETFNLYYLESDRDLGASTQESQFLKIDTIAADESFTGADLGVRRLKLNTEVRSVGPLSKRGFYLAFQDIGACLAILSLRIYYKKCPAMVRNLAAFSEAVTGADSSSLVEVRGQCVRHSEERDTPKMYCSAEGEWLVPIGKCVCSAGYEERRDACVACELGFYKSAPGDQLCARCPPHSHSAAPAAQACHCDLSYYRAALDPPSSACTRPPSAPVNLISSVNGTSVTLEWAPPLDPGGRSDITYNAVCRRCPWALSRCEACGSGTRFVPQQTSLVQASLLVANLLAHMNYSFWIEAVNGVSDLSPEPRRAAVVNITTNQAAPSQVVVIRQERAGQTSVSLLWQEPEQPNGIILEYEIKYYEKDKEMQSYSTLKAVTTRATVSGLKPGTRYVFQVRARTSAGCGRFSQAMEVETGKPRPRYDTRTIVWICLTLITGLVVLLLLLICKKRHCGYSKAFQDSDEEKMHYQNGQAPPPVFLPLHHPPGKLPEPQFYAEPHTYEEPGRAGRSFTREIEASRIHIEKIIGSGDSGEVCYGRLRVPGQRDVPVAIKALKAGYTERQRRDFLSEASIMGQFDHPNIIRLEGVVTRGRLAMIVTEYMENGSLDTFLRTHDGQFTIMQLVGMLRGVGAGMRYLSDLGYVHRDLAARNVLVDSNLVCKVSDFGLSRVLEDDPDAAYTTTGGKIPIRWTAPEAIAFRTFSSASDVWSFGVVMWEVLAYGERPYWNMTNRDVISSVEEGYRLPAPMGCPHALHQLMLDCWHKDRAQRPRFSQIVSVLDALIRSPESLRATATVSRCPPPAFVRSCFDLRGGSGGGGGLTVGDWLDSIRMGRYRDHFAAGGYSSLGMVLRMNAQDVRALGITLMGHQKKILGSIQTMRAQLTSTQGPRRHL

[7] = target: Leukocyte tyrosine kinase receptor (Homo sapiens) (UniProt P29376); assay: LTK (TYK1) Kinase screen; conditions: Compound concentration 1.0 uM
Sequence of Leukocyte tyrosine kinase receptor (Homo sapiens) (P29376 whole entry): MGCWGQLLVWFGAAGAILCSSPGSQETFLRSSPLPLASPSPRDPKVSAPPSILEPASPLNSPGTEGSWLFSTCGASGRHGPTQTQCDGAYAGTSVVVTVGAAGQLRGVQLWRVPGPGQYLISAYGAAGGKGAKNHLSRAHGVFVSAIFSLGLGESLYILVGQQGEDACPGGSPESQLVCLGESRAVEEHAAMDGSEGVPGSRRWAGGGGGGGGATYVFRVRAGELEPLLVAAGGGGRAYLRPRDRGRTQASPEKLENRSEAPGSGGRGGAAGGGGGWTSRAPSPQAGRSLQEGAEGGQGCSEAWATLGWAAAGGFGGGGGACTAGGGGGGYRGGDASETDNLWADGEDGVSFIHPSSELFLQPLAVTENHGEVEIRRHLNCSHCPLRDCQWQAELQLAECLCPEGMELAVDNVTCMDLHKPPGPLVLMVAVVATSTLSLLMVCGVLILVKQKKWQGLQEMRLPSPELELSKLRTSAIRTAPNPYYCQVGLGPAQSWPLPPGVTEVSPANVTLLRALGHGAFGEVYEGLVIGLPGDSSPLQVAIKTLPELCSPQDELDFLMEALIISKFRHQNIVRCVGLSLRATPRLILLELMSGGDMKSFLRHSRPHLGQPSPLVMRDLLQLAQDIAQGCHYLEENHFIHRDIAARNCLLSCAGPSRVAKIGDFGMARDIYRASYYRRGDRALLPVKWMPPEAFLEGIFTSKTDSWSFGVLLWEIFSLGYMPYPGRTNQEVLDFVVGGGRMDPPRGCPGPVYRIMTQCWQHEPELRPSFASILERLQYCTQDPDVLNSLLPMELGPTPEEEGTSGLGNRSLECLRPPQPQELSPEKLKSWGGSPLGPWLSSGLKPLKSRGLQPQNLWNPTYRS

Measured: inhibition

C[C@@H]1CN(c2cc(-c3n[nH]c4ccc(OC5(C)CC5)cc34)ncn2)C[C@H](C)O1 [MLi-2]
inactive: [1] -1.14% | [2] 8.15% | [3] 7.26% | [4] 30.9% | [5] 8% | [6] 7.44% | [7] 42.4%
